“Also recorded” adds a separate entry of the source. No end group written: not given here.
Tests used:
[1] = tested on: liver of Chga-KO mice; experiment: Hepatic gene expression by real-time PCR after CST; format: in vivo; settings: CST 12 days
Method: FIG. 4. Effects of CST on hepatic expression of genes involved in lipogenesis and fatty acid oxidation. Relative mRNA expression of genes involved in fatty acid oxidation in liver of WT and Chga-KO mice after treatment with saline or CST (5 μg/g BW, i.p./day) for 12 days: carnitine palmitoyltransferase 1a (Cpt1α) (A), peroxisome proliferator-activated receptor-alpha (Pparα) (B), acyl-CoA oxidase 1 (Acox1) (C) and uncoupling protein 2 (Ucp2) (D). (E) Relative expression of genes involved in lipogenesis in liver of Chga-KO mice after treatment with saline or CST (5 μg/g BW, i.p./day) for 12 days: sterol regulatory element-binding protein 1 (Srebp-1), peroxisome proliferator-activated receptor-gamma (Pparγ), glycerol-3-phosphate acyltransferase (Gpat4) and Cluster of Differentiation 36 (Cd36).
RNA was extracted using a kit (RNeasy Plus, Qiagen, Valencia, Calif.) according to the manufacturer's specifications. After DNase digestion, 100 ng of RNA was transcribed into cDNA in a 20-μl reaction using a High Capacity cDNA kit (Invitrogen, Carlsbad, Calif.), analyzed, and amplified. PCR was performed in a 25-μl reaction containing 5 μl of cDNA (one-fifth diluted), 2×SYBR Green PCR Master Mix, and the primers described in Table 1 (400 nM each). Differences in cycle threshold values (ΔCt) between target and the housekeeping gene GAPDH were used to calculate the levels of expression.

[2] = tested on: PC-12 neuroendocrine cells; experiment: cAMP production in PC-12 cells; format: cell-based
[3] = tested on: STAT3 and AMPK phosphorylation; experiment: Stat3 and AMPK signaling in adipose explants from DIO mice; format: cell-based; settings: CST in vivo, leptin 1 μM ex vivo 30 min
Method: FIG. 9. Stat3 and AMPK signaling in the adipose tissue explants from DIO and Ob/Ob mice treated with saline, CST (in vivo) and leptin (ex vivo). Explants from DIO mice (A&B) and Ob/Ob mice (C&D) were incubated with saline or leptin (1 μM) for 30 min, homogenized and immunoblotted for phospho- and total Stat3 (A&C) as well as phospho- and total AMPK signals (B&D). Results are presented as the ratio of signal strength of phospho-over total.
Adipose tissue explants were prepared as described (42). Epididymal fat pads from 12 hr fasted WT, Chga-KO, DIO and Ob/Ob mice with or without CST treatment were collected in Kreb-Ringer-phosphate (KRP) buffer containing 10 mM Hepes and 0.5% BSA. Tissues were minced to 1-2 mm size and treated with 100 nM CST, 1 μM leptin, or saline for 30 min (for signaling analysis) or 3 hr (for lipolysis and β-oxidation assays). Explants were also treated acutely with CST, leptin, a combination, or saline. At the end, incubation media were saved for analysis of glycerol and fatty acid release. Explants were washed prior to homogenization for immunoblotting and analysis of fatty acid oxidation.
Adipose tissue explants after treatments ex vivo and tissues from mice treated in vivo were homogenized in a buffer containing phosphatase and protease inhibitors (20 mM Tris/HCl (pH 7.5), 250 mM sucrose, 2 mM EDTA, 2 mM EGTA, 2 mM Na3VO4, 10 mM NaF, 2 mM Na4P2O7, 1 mM phenylmethylsulfonyl fluoride, 20 μg/ml leupeptin, 10 μg/ml aprotinin, and 1 μM LR-microcystin) as described (38,44). Homogenates were subjected to SDS-PAGE and immunoblotted. Primary antibodies for AMPK and Stat3 were from Cell Signaling Technology (Beverly, Mass.). The chemiluminescence kit was from Pierce (Rockford, Ill.).

[4] = tested on: phospholipase C (PLC); settings: 3T3-L1 adipocytes
Method: FIG. 5. Regulation of adrenergic signaling by CST as measured by cAMP production, phospholipase C activity, and lipolytic glycerol release. (A) Effects of CST (100 nM, 10 min) on cAMP production in PC-12 and 3T3-L1 cells pretreated with saline or isoproterenol (ISO) (10 μM) for 10 min. (B) Effects of CST on phospholipase C activity in 3T3-L1 adipocytes pretreated with phenylephrine or epinephrine (10 μM for 10 min). (C) Effects of CST on glycerol release from adipocytes pretreated with ISO, phenylephrine (PEP), and phentolamine (PTA) (10 μM for 10 min).

[5] = tested on: HFD-fed WT mice; experiment: CST treatment of HFD-fed WT mice; format: in vivo
Excerpt: FIG. 12. Metabolic phenotypes in HFD-fed CST-KO mice. (A) CST-KO mice eat more 60% HFD than WT. (B) CST-KO mice gained more weight than WT. (C) Heightened glucose resistance at baseline in CST-KO mice compared to WT mice. […] Figures in parentheses indicate number of animals.

[6] = reference (8); cited from earlier work
[7] = tested on: CST-KO mice; experiment: Palmitate oxidation and hepatic gene expression in CST-KO mice; format: in vivo
Excerpt: FIG. 14. Palmitate oxidation. CST augmented palmitate oxidation in liver (A) and muscle (B) of both NCD- and 60% HFD-fed mice. Hepatic expression of genes involved in fatty acid oxidation such as Cpt1α(C), Acox (D) and Pparα (E). Augmented expression of these genes in Chga-KO mice indicates increased fatty acid oxidation in liver. In contrast, decreased expression in CST-KO mice indicates decreased fatty acid oxidation in liver, which was restored by supplementation with CST. Expression of lipogenic & gluconeogenic genes (F). Increased expression of Srebp1c in Chga-KO mice indicates increased lipogenesis. (G) Decreased expression of gluconeogenic gene Pepck in Chga-KO mice indicates inhibition of gluconeogenesis eventuating in increased sensitivity to insulin. In contrast, augmented expression of Pepck in CST-KO implicates increased gluconeogenesis eventuating in decreased sensitivity to insulin, which is normalized after CST supplementation. Figures in parentheses indicate number of animals.

[8] = CST-KO mice, CST supplementation

## SSMKLSFRARAYGFRGPGPQL [CST]
[1]
  liver mRNA expression of Acox: augmented
  liver mRNA expression of Cd36: stimulated
  liver mRNA expression of Cpt1α: augmented
  liver mRNA expression of Gpat4: stimulated
  liver mRNA expression of Pparα: augmented
  liver mRNA expression of Pparγ: no effect
  liver mRNA expression of Srebp-1: no effect
  liver mRNA expression of Ucp2: augmented
[2]
  basal or isoproterenol-induced cAMP levels: did not modulate
[2]; CST 100 nM, ISO 10 μM, 10 min
  cAMP production: not by CST
[3]
  AMPK phosphorylation: not AMPK phosphorylation
  STAT3 phosphorylation: stimulated only STAT3 phosphorylation
[4]
  PLC activity, substance by itself: mildly stimulates PLC
[4]; epinephrine 10 μM 10 min
  PLC activation by epinephrine: attenuated
[4]; phenylephrine 10 μM 10 min
  PLC activation by phenylephrine: attenuated
[5]
  basal plasma insulin level: decreased; also recorded: reduced hyperinsulinemia
  insulin sensitivity: improvement in insulin sensitivity; also recorded: sensitive to insulin
[6]
  protease degradation: susceptible to complete protease degradation
[7]; [8]
  palmitate oxidation in liver: stimulated; also recorded: augmented
  palmitate oxidation in muscle: stimulated; also recorded: augmented
[7]; liver of CST-KO mice
  hepatic expression of Acox: stimulated expression; also recorded: restored
  hepatic expression of Cpt1α: stimulated expression; also recorded: restored
  hepatic expression of Pepck: suppressed the expression; also recorded: normalized
  hepatic expression of Pparα: stimulated expression; also recorded: restored
  hepatic expression of Srebp1c: stimulated expression

Source: patent publication US9572862B2, “Methods for promoting lipolysis and oxidation in liver and adipose tissue using catestatin” (The Regents of the University of California, priority 2012, dated 2017)
